Assay results as given in BindingDB's records for doi:10.7270/Q2M32T6M (Vanderbilt Screening Center for GPCRs, Ion Channels and …, 2009).

Biological target: T1, Solute carrier family 12 member 5 (Homo sapiens, UniProt Q9H2X9)
T1 sequence (Q9H2X9 whole entry): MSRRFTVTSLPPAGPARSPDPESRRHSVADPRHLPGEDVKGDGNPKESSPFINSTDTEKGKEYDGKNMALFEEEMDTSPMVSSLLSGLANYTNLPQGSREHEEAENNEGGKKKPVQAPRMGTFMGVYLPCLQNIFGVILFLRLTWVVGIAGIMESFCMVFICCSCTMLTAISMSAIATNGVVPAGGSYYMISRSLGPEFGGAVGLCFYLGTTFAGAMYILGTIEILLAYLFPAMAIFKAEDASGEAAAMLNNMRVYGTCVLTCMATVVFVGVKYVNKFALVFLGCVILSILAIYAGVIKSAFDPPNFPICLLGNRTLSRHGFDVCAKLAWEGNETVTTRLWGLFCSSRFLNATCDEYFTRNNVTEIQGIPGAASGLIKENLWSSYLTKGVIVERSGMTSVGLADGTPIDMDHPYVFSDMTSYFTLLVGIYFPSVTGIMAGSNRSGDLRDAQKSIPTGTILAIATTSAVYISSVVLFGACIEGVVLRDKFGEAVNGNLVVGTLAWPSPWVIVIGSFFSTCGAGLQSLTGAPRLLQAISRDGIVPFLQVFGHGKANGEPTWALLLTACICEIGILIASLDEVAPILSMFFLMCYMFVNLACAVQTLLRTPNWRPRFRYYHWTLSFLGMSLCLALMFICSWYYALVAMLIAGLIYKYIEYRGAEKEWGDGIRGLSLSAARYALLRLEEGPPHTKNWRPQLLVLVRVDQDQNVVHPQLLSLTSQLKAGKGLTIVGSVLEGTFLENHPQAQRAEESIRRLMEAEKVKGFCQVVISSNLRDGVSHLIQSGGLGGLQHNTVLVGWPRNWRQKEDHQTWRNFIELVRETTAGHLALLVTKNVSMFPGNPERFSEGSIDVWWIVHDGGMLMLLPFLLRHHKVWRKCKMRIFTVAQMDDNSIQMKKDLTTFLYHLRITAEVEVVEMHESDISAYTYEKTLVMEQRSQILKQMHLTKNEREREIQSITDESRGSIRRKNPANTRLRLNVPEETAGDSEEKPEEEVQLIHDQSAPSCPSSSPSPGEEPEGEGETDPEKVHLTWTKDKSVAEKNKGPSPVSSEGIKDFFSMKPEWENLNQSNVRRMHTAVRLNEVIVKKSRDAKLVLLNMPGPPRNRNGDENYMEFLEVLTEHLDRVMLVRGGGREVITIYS
Test: KCC2 modulator potency by thallium flux, dose response, cell-based, HEK293 KCC2, FluoZin-2 fluorescence (AID 1736)
Details: not given

First: Sc1nnc(C2(c3ccccc3)CCCC2)o1 [5-(1-phenylcyclopentyl)-3H-1,3,4-oxadiazole-2-thione]
Second: Sc1nnc(Cc2cccc3ccccc23)o1 [5-(1-naphthalenylmethyl)-3H-1,3,4-oxadiazole-2-thione]
The EC50 of the first is 4.6-fold higher: 1.31 µM for the first, 0.283 µM for the second. The second is the more potent here.

Going from `Cc1cccc(OCc2nnc(SCC(=O)c3cccs3)n2C)c1C` [2-[5-(2,3-Dimethyl-phenoxymethyl)-4-methyl-4H-[1,2,4]triazol-3-ylsulfanyl]-1-thiophen-2-yl-ethanone] to `O=C(CSc1nnc(C2CC2)n1Cc1ccccc1)c1cc2ccccc2o1` [1-(1-benzofuran-2-yl)-2-[(4-benzyl-5-cyclopropyl-1,2,4-triazol-3-yl)sulfanyl]ethanone], the EC50 falls from 9.24 µM to 3.85 µM (2.4-fold).

Compared with `O=C(CSc1nnc(CNc2ccccc2)o1)N1CCCc2ccccc21` [1-(3,4-Dihydro-2H-quinolin-1-yl)-2-(5-phenylaminomethyl-[1,3,4]oxadiazol-2-ylsulfanyl)-ethanone], `CC1Cc2ccccc2N1C(=O)CSc1nnc(CNc2ccccc2)o1` (centres undefined) [1-(2-Methyl-2,3-dihydro-indol-1-yl)-2-(5-phenylaminomethyl-[1,3,4]oxadiazol-2-ylsulfanyl)-ethanone] is 13000-fold lower in EC50: 1730 µM for the first, 0.137 µM for the second.

First: O=C(CSc1ccccc1C(=O)NCc1ccccc1)NC12CC3CC(CC(C3)C1)C2
Second: O=C(CSc1ccc(-c2ccccc2)nn1)N1CCCc2ccccc21 [1-(3,4-dihydro-2H-quinolin-1-yl)-2-(6-phenylpyridazin-3-yl)sulfanyl-ethanone]
The EC50 of the first is 2.1-fold lower: 6.49 µM for the first, 13.5 µM for the second.

`Cn1c(CSc2nc3ccccc3s2)nc2ccccc21` [2-(1-Methyl-1H-benzoimidazol-2-ylmethylsulfanyl)-benzothiazole] and `O=C(O)CC/C(=C\c1ccccc1[N+](=O)[O-])c1nc2ccccc2s1` [(E)-4-(1,3-benzothiazol-2-yl)-5-(2-nitrophenyl)-4-pentenoic acid] are within 1.5-fold of each other in EC50: 439 µM for the first, 350 µM for the second.

First: Cc1ccc(C(=O)O)cc1-c1ccc(C=C2NC(=O)N(c3ccccc3)C2=O)o1 [3-[5-[(E)-(2,5-dioxo-1-phenylimidazolidin-4-ylidene)methyl]furan-2-yl]-4-methylbenzoic acid]
Second: CC(C)N1C(=O)S/C(=C/c2ccccc2OCc2ccc(C(=O)O)cc2)C1=O
The EC50 of the first is 4.8-fold higher: 10.7 µM for the first, 2.21 µM for the second.

First: CC1Cc2ccccc2N1C(=O)c1ccc(N2CCCC2)c([N+](=O)[O-])c1 (centres undefined) [(2-methyl-2,3-dihydroindol-1-yl)-(3-nitro-4-pyrrolidin-1-yl-phenyl)methanone]
Second: Cc1ccc(OCCC(=O)OCC(=O)N2c3ccccc3CC2C)cc1 (centres undefined) [3-(4-methylphenoxy)propanoic acid [2-(2-methyl-2,3-dihydroindol-1-yl)-2-oxoethyl] ester]
The EC50 of the first is 4.1-fold lower: 0.651 µM for the first, 2.68 µM for the second.

Compared with `Cc1nc2cc(C(F)(F)F)ccc2n1C1CCN(Cc2nnnn2Cc2ccc3c(c2)OCO3)CC1` [1-[1-(1-Benzo[1,3]dioxol-5-ylmethyl-1H-tetrazol-5-ylmethyl)-piperidin-4-yl]-2-methyl-5-trifluoromethyl-1H-benzoimidazole], `CCc1ccc(Nc2nnc(SCc3cc(=O)n4ccsc4n3)s2)cc1` [7-[[5-(4-ethylanilino)-1,3,4-thiadiazol-2-yl]sulfanylmethyl]-[1,3]thiazolo[3,2-a]pyrimidin-5-one] is 29-fold lower in EC50: 3.28 µM for the first, 0.113 µM for the second. The second is the more potent here.

First: Cc1ccc(NC(=O)CSc2ccc(-c3ccco3)nn2)cc1 [2-[6-(furan-2-yl)pyridazin-3-yl]sulfanyl-N-(4-methylphenyl)acetamide]
Second: O=C(Nc1ccc2oc(-c3ccccc3F)nc2c1)c1ccco1 [MLS000709180]
The EC50 of the first is 180-fold lower: 4.55 µM for the first, 827 µM for the second. The first is the more potent here.

First: COc1cc(OC)c(C2=NOC(C(=O)NCCc3ccccc3)C2)cc1Cl (centres undefined) [3-(5-chloranyl-2,4-dimethoxy-phenyl)-N-(2-phenylethyl)-4,5-dihydro-1,2-oxazole-5-carboxamide]
Second: Cc1cc([N+](=O)[O-])ccc1NCc1ccccc1 [2-methyl-4-nitro-N-(phenylmethyl)aniline]
The EC50 of the first is 13-fold higher: 47.1 µM for the first, 3.75 µM for the second. The second is the more potent here.

Going from `CC(=O)NC(C)C(=O)OCC(=O)c1ccc(-c2ccccc2)cc1` (centres undefined) [2-acetamidopropanoic acid [2-oxo-2-(4-phenylphenyl)ethyl] ester] to `CCOc1ccc(C(CC(=O)O)NC(=O)C(Sc2ccccc2)c2ccccc2)cc1` (centres undefined) [3-(4-ethoxyphenyl)-3-[(2-phenyl-2-phenylsulfanyl-ethanoyl)amino]propanoic acid], the EC50 rises from 13.7 µM to 23.3 µM (1.7-fold).

Going from `Sc1nnc(CCc2ccc(Cl)cc2)o1` [5-[2-(4-chlorophenyl)ethyl]-1,3,4-oxadiazole-2-thiol] to `COCCNS(=O)(=O)c1ccc(-c2ccc(Cl)cc2)cc1` [4'-chloro-N-(2-methoxyethyl)-4-biphenylsulfonamide], the EC50 rises from 1.57 µM to 3.27 µM (2.1-fold).

First: CN(C)S(=O)(=O)c1ccc(Cl)c(C(=O)Nc2nc3ccccc3[nH]2)c1 [SMR000370637]
Second: CCC(Cc1ccccc1)NC(=O)CN(C)S(=O)(=O)c1ccc2c(c1)c(=O)n(C)c(=O)n2C (centres undefined) [2-[(1,3-dimethyl-2,4-dioxo-6-quinazolinyl)sulfonyl-methylamino]-N-(1-phenylbutan-2-yl)acetamide]
The EC50 of the first is 1.7-fold lower: 4.52 µM for the first, 7.75 µM for the second.

Compared with `NC(=O)COc1ccccc1/C=C1/SC(=O)N(CC(=O)N2CCc3ccccc3C2)C1=O` [2-[2-({3-[2-(3,4-dihydro-2(1H)-isoquinolinyl)-2-oxoethyl]-2,4-dioxo-1,3-thiazolidin-5-ylidene}methyl)phenoxy]acetamide], `COc1ccc(S(=O)(=O)N2CCC(C(=O)N3CCc4ccccc4C3)CC2)cc1C` [2-({1-[(4-methoxy-3-methylphenyl)sulfonyl]-4-piperidinyl}carbonyl)-1,2,3,4-tetrahydroisoquinoline] is 2200-fold lower in EC50: 10800 µM for the first, 4.98 µM for the second.

Compared with `Cc1nn2c(nc(O)c3ccccc32)c1C=O` [MLS000565386], `c1ccc(-c2nnc(Sc3ncnc4c3cnn4-c3ccccc3)[nH]2)cc1` [SMR000019566] is 3.1-fold lower in EC50: 20.6 µM for the first, 6.74 µM for the second. The second is the more potent here.

Going from `COc1ccc(N(CC(=O)Nc2cccc(C)c2C)S(=O)(=O)c2c(C)n[nH]c2C)cc1` [N-(2,3-dimethylphenyl)-2-[(3,5-dimethyl-1H-pyrazol-4-yl)sulfonyl-(4-methoxyphenyl)amino]ethanamide] to `CS(=O)(=O)N(CC(=O)N1CCN(c2ccc(F)cc2)CC1)c1ccc(F)c(Cl)c1` [MLS000531433], the EC50 falls from 38.6 µM to 20.6 µM (1.9-fold).

First: O=C(/C=C/c1ccco1)N1CCC(Cc2ccccc2)CC1 [(E)-1-(4-benzylpiperidin-1-yl)-3-(furan-2-yl)prop-2-en-1-one]
Second: N#Cc1c(NC(=O)CSc2nc(N)cc(=O)[nH]2)sc2c1CCCCCC2 [2-[(6-amino-4-oxo-1H-pyrimidin-2-yl)sulfanyl]-N-(3-cyano-4,5,6,7,8,9-hexahydrocycloocta[b]thiophen-2-yl)acetamide]
The EC50 of the first is 24-fold lower: 9.8 µM for the first, 233 µM for the second. The first is the more potent here.

Same assay, conditions: inactive by the depositor's call

Going from `Cc1nn(-c2ccccc2)c2sc(C(=O)N(Cc3ccco3)C(C)C(=O)NC(C)(C)C)cc12` (centres undefined) [3-Methyl-1-phenyl-1H-thieno[2,3-c]pyrazole-5-carboxylic acid (1-tert-butylcarbamoyl-ethyl)-furan-2-ylmethyl-amide] to `O=C(Nc1ccn(Cc2ccccc2)n1)c1cccc(F)c1` [3-fluoranyl-N-[1-(phenylmethyl)pyrazol-3-yl]benzamide], the EC50 falls from 33.2 µM to 4.51 µM (7.4-fold).

`CCc1ccc(OCC(=O)NNC(=O)CSc2ncnc3sc(C)c(C)c23)cc1` [(4-Ethyl-phenoxy)-acetic acid N'-[2-(5,6-dimethyl-thieno[2,3-d]pyrimidin-4-ylsulfanyl)-acetyl]-hydrazide] and `CCOc1ccc(C(C(=O)NC2CCCC2)N(CCCO)C(=O)c2ccc(-c3ccccc3)[nH]2)cc1` (centres undefined) [N-[2-(cyclopentylamino)-1-(4-ethoxyphenyl)-2-oxoethyl]-N-(3-hydroxypropyl)-5-phenyl-1H-pyrrole-2-carboxamide] are within 1.5-fold of each other in EC50: 1070 µM for the first, 843 µM for the second.

Compared with `Cc1nc(N2CCN(Cc3ccccc3)CC2)nc2c1C(=O)CCC2` [2-(4-benzylpiperazin-1-yl)-4-methyl-7,8-dihydro-6H-quinazolin-5-one], `Cc1ccccc1-c1nc(CS(=O)(=O)CC(=O)N2CCc3ccccc3C2)c(C)o1` [1-(3,4-dihydro-1H-isoquinolin-2-yl)-2-[[5-methyl-2-(2-methylphenyl)-1,3-oxazol-4-yl]methylsulfonyl]ethanone] is 2.6-fold higher in EC50: 8.64 µM for the first, 22.1 µM for the second.

Going from `N=C1SCC(=O)N1c1ncc(Cc2cccc(Cl)c2)s1` [2-azanylidene-3-[5-[(3-chlorophenyl)methyl]-1,3-thiazol-2-yl]-1,3-thiazolidin-4-one] to `Cc1ccc(C=NNC(=S)Nc2cccc(S(=O)(=O)N(C)C)c2)o1`, the EC50 rises from 3.13 µM to 16.6 µM (5.3-fold). The first is the more potent here.

Compared with `O=c1c2ccccc2[nH]c(=S)n1CCN1CCC(=C(c2ccc(F)cc2)c2ccc(F)cc2)CC1` [SMR000058550], `S=C(Nc1ccccn1)Nc1ccccc1Cl` [1-(2-chlorophenyl)-3-(2-pyridinyl)thiourea] is 92-fold lower in EC50: 181 µM for the first, 1.97 µM for the second.
